These results are taken from patent publication US20250320203A1, “4-(3H-PYRAZOLO[4,3-F]QUINOLIN-7-YL)-N-(2-(DIMETHYLAMINO)ETHYL)BENZAMIDE- OR HYDROXAMIC ACID COMPOUNDS, COMPOSITIONS, AND METHODS OF USE” (Purdue Research Foundation, priority 2022, published 2025).

Data set [1] deals with T1, FLT3-D835Y (Homo sapiens, UniProt P36888, D835Y).
T1 construct: purchased Reaction Biology (contract research service)
T1 sequence (P36888 27-993 D835Y): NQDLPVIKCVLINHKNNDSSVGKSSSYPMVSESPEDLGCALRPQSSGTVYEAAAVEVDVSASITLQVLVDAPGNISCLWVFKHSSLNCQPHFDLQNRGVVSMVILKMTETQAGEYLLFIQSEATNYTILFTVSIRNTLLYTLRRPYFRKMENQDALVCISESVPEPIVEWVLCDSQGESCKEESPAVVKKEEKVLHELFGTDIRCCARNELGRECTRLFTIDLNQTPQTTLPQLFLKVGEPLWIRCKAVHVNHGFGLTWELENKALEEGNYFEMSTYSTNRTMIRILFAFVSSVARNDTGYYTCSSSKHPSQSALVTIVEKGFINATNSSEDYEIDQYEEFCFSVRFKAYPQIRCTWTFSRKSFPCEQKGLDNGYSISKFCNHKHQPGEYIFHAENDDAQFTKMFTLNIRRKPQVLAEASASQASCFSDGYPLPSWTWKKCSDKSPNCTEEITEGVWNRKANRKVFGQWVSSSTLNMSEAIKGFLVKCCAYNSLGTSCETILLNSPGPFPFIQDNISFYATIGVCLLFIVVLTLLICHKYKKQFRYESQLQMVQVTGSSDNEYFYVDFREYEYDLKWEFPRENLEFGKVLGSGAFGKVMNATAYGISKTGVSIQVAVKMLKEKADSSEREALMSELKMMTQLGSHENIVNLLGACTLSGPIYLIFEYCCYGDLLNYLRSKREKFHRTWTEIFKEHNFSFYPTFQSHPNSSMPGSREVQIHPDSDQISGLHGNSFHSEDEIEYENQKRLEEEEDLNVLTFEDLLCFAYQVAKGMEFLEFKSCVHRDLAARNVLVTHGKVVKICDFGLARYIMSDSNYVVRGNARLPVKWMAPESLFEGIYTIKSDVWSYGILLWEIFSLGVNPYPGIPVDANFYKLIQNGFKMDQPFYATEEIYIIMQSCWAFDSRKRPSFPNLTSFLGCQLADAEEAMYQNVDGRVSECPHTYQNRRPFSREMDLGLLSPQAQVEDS
The data set can be described thus: FLT3 (D835Y) enzyme inhibition, 10-dose IC50 (Reaction Biology). It is filed as biochemical. The note with it: 10 μM ATP.

Data set [2] concerns phosphorylated FLT3. The data set can be described thus: Western blot, FLT3 target engagement in Molm-14 cells. It is filed as cell-based, human. The settings on record: Molm-14 cells treated for 2 hours. The protocol: Acute myeloid leukemia cells (Molm-14) were incubated with various concentrations of compound as specified. Cells were collected and lysed, and protein concentrations were quantified relative to BSA standards. After protein denaturation, proteins were separated via SDS-PAGE electrophoresis and transferred to NC membranes. After blocking, overnight incubation with specific primary antibodies, and room temperature incubation for 2 hours with peroxidase-conjugated secondary antibodies, peroxidase activity was detected with SuperSignal West Pico reagents (Thermo Scientific) using a CCD camera LAS-4000 (Fujifilm). Bands were normalized using housekeeping gene, Actin. Values reported represent the means of triplicates and error bars represent SD. All specific antibodies were purchased from Cell Signaling.
Additionally, FLT3 target engagement in Molm-14 cells was evaluated to confirm the FLT3 inhibition seen in the preliminary kinase screen of Example 4 (Table 1). Cells were treated for 2 hours, harvested, and subsequently analyzed.
On the technique in general: In western blotting, separated proteins are transferred to a membrane and probed.

The test system of data set [3] is DNA. As to the kind of experiment: DNA intercalation assay. The note with it: doses from 1 mM to 10 nM. The protocol:
FIG. 16 is a graph of data from a DNA intercalation assay. […] Data was fitted to a non-linear regression equation using GraphPad Prism 9.0 software (each data point represents the mean of triplicates).
To move compounds forward for further development, DNA intercalation assays were conducted to eliminate compounds with high affinity for DNA.

Data set [4] deals with T2, haspin (Homo sapiens, UniProt Q8TF76).
T2 sequence (Q8TF76 1-798): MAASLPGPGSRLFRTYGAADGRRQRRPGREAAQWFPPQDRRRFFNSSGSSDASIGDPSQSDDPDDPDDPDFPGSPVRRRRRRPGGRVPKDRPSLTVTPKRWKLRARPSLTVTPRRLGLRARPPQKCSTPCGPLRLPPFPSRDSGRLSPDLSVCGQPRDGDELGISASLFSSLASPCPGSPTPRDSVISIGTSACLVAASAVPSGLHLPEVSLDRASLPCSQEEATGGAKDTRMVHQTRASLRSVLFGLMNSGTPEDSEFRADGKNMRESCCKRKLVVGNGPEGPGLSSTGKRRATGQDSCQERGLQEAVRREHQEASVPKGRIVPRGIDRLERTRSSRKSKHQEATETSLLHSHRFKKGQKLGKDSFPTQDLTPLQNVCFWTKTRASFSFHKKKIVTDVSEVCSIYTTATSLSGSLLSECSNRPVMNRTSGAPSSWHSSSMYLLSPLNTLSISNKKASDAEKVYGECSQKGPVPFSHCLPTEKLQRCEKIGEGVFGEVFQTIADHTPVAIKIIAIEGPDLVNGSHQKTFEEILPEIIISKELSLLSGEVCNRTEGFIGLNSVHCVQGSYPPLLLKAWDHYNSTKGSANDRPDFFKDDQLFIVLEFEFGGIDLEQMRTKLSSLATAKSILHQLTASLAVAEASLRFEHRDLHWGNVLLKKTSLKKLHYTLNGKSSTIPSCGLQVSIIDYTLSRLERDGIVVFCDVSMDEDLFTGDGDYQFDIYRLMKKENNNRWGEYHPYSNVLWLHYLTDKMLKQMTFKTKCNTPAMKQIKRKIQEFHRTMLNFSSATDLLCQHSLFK
The data set can be described thus: Haspin binding Kd (Eurofins). Details: purchased Eurofins (contract research service).

Broadly, the IC50 is the point on the concentration scale where inhibition reaches its midpoint. A low value points to greater potency. One may read the Kd as the constant that tells how readily two partners part at equilibrium. The low end stands for a tighter complex, the high end for a looser complex. Regarding `Cc1c[nH]c(CNC(=O)c2ccc(-c3nc4ccc5[nH]ncc5c4c4c3CCCC4)cc2)n1` [Compound HSK205], the IC50 in data set [1] is under 500 pM. In addition, in data set [2], the “phosphorylated FLT3” value is “reduction of phosphorylated FLT3”. The DNA intercalation entry in data set [3] is listed as “did not intercalate into DNA”. The compound further registered a Kd in data set [4] of 550 pM.
